Where two headings read alike, the source gives them in different places.
Assays:
BromoTag-Brd2 = target: T1, BromoTag-Brd2 (Homo sapiens, UniProt O60885+P40337, L387A); assay: Dose-response degradation assay (western blot, 6 h) in heterozygous BromoTag-Brd2 HEK293 cells; format: cell-based; conditions: for pDC50: second-generation B&H-PROTACs (diastereomeric mixtures), mean (±S.E) of three experiments; for hook effect: at the higher concentrations used, 1-10 μM
T1 construct: comprising residues 368-440 of human Brd4; Brd2 (endogenous protein, fusion partner in the same polypeptide); eGFP-P2A (upstream marker in the knock-in cassette) (N, cleaved yes); expressed in transfected cells; host or cells: HEK293, heterozygous CRISPR knock-in at the endogenous BRD2 locus
Protocol: Dose-response Degradation Assays. All dose-response degradation assays were performed on the genotype verified heterozygous BromoTag-Brd2 HEK293 cell line. Heterozygous BromoTag-Brd2 HEK293 cells were plated at a density of 5×10^5 cells per well of a six healthy plate a day before initiation of the titration experiment. PROTAC compounds were dissolved in DMSO at a concentration of 10 mM, from these stock concentrations, PROTAC compounds were diluted to appropriate concentrations using DMSO in the range of 10 μM-1 nM. […] Control compounds such as MZ1, cis-MZ1 were similarly dissolved in DMSO to the appropriate concentration. […] Cells were washed twice with PBS before being harvested.
Western Blotting. […] The membranes were blocked for 1 h prior to incubation with the primary antibodies using 5% Milk TBST. […] Following overnight incubation with the primary antibodies at 4° C., the membranes were incubated with secondary antibodies (Anti-rabbit, Abcam AB216773, 1:5000 or anti-mouse, Abcam AB216774, 1:5000) and hFAB™ Rhodamine Anti-Tubulin Antibody (Biorad, 12004165, 1:10000) for one h and then imaged with a Bio-Rad imager (LI-COR Biosciences). All western blots were analysed for band intensities using Image Lab from Bio-Rad (LI-COR, Biosciences). The data extracted from these blots were then plotted and analysed using Prism (v. 8.2.0, GraphPad).

[1] = tested on: untagged Brd2 and endogenous Brd3 and Brd4; assay: Off-target degradation of endogenous BET proteins (western blot) in BromoTag-Brd2 HEK293 cells; format: cell-based, human; conditions: 1 nM to 10 μM; 6 h
Protocol: Dose-response Degradation Assays. All dose-response degradation assays were performed on the genotype verified heterozygous BromoTag-Brd2 HEK293 cell line. Heterozygous BromoTag-Brd2 HEK293 cells were plated at a density of 5×10^5 cells per well of a six healthy plate a day before initiation of the titration experiment. PROTAC compounds were dissolved in DMSO at a concentration of 10 mM, from these stock concentrations, PROTAC compounds were diluted to appropriate concentrations using DMSO in the range of 10 μM-1 nM. The compounds were then added to a 2 mL of DMEM (Invitrogen, Carlsebad, CA, USA) supplemented with 10% (v/v) Fetal bovine serum (FBS) (Thermo Fisher, Waltham, MA, USA) and 1% (v/v) penicillin/streptomycin (pen/strep) (#15140122, Thermo Fisher, Waltham, MA, USA) and added to the cells at initiation of the experiment. Control compounds such as MZ1, cis-MZ1 were similarly dissolved in DMSO to the appropriate concentration. All titration experiment were performed for a total of 6 hours prior to being harvested and were kept at 37° C., 5% CO2, and 95% humidity once treatment was applied until right before harvesting. Cells were washed twice with PBS before being harvested.
Western Blotting. […] Total protein quantity was determined using the BCA protein assay (#23225, Pierce, Rockford, Illinois). Protein concentration was determined using the BCA assay (ThermoFisher Scientific, 23225). […] All western blots were analysed for band intensities using Image Lab from Bio-Rad (LI-COR, Biosciences). The data extracted from these blots were then plotted and analysed using Prism (v. 8.2.0, GraphPad).
Development of a Knock-in Cell Line with BromoTag fused to endogenous Brd2 using CRISPR. […] To this end, the endogenous BET family protein Brd2 was chosen as a model target, due to the availability of well-established antibody for Brd2 detection, and expression of a single protein isoform as well detected band in the western blot (Filippakopoulos, P.; Knapp, S., Nat Rev Drug Discov. 2014, 13 (5), 337-356). […]

[2] = Ab: Brd2, second-generation B&H-PROTACs, 6 h
[3] = Ab: Brd4^BD2 L387A, second-generation B&H-PROTACs, 6 h
[4] = 6 h, range over the two antibodies

T1 sequence (P40337 whole entry, other chains not shown, the tested form may be a part): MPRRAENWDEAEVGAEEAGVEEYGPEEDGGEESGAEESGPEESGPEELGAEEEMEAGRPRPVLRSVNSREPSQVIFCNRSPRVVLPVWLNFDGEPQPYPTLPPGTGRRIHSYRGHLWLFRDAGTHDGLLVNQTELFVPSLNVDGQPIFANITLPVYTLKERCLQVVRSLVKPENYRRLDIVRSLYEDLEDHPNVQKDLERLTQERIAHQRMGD

| SMILES | DC50 (BromoTag-Brd2; 6 h) | Dmax, BromoTag-Brd2 (BromoTag-Brd2; 6 h) | pDC50 (BromoTag-Brd2; Ab: Brd2, 6 h) | Dmax (%) (BromoTag-Brd2; [2]) | pDC50 (BromoTag-Brd2; Ab: Brd4^BD2 L387A, 6 h) | Dmax (%) (BromoTag-Brd2; [3]) | hook effect (BromoTag-Brd2; 6 h) | DC50 (BromoTag-Brd2; [4]) | Dmax (BromoTag-Brd2; HEK293, Ab: Brd4^BD2 L387A, second-generation B&H-PROTACs, 6 h) | Dmax (BromoTag-Brd2; HEK293, read-out: Dmax, BromoTag-Brd2, 6 h) | off-target degradation of untagged Brd2 or the other endogenous BET proteins [1] |
| --- | --- | --- | --- | --- | --- | --- | --- | --- | --- | --- | --- |
| CC[C@@H](C(=O)NCCOCCCOCC(=O)N[C@H](C(=O)N1C[C@H](O)C[C@H]1C(=O)N[C@@H](C)c1ccc(-c2scnc2C)cc1)C(C)(C)C)[C@@H]1N=C(c2ccc(Cl)cc2)c2c(sc(C)c2C)-n2c(C)nnc21 (relative stereo) [ET-ARV-771 (21), (2S,4R)-1-((2S,15R*)-(tert-butyl)-15-((S*)-4-(4-chlorophenyl)-2,3,9-trimethyl-6H-thieno[3,2-f][1,2,4]triazolo[4,3-a][1,4]diazepin-6-yl)-4,14-dioxo-6,10-dioxa-3,13-diazaheptadecanoyl)-4-hydroxy-N—((S)-1-(4-(4-methylthiazol-5-yl)phenyl)ethyl)pyrrolidine-2-carboxamide] | ~1000 nM | < 70% | 5.7 ± 1.8 | 51% | 6.1 ± 0.3 | 69% | strong hook effect | – | – | – | – |
| Cc1ncsc1-c1ccc([C@H](C)NC(=O)[C@@H]2C[C@@H](O)CN2C(=O)[C@@H](NC(=O)COCCCOCCNC(=O)[C@H](C)[C@@H]2N=C(c3ccc(Cl)cc3)c3c(sc(C)c3C)-n3c(C)nnc32)C(C)(C)C)cc1 (relative stereo) [ME-ARV-771 (20), (2S,4R)-1-((2S,15R*)-(tert-butyl)-15-((S*)-4-(4-chlorophenyl)-2,3,9-trimethyl-6H-thieno[3,2-f][1,2,4]triazolo[4,3-a][1,4]diazepin-6-yl)-4,14-dioxo-6,10-dioxa-3,13-diazahexadecanoyl)-4-hydroxy-N—((S)-1-(4-(4-methylthiazol-5-yl)phenyl)ethyl)pyrrolidine-2-carboxamide] | – | – | 6.4 ± 0.6 | 60% | 6.5 ± 0.4 | 70% | – | 320 to 400 nM | – | – | – |
| CC[C@@H](C(=O)OCCOCCOCCOCC(=O)N[C@H](C(=O)N1C[C@H](O)C[C@H]1C(=O)NCc1ccc(-c2scnc2C)cc1)C(C)(C)C)[C@@H]1N=C(c2ccc(Cl)cc2)c2c(sc(C)c2C)-n2c(C)nnc21 (relative stereo) [ET-OMZ1 (23), (S)-13-((2S,4R)-4-hydroxy-2-((4-(4-methylthiazol-5-yl)benzyl)carbamoyl)pyrrolidine-1-carbonyl)-14,14-dimethyl-11-oxo-3,6,9-trioxa-12-azapentadecyl (R*)-2-((S*)-4-(4-chlorophenyl)-2,3,9-trimethyl-6H-thieno[3,2-f][1,2,4]triazolo[4,3-a][1,4]diazepin-6-yl)butanoate] | – | – | 7.9 ± 0.2 | – | 7.1 | – | strong onset of the hook effect | 13 to 80 nM | 90% | > 75% | no observable off-target degradation |
| CC[C@@H](C(=O)NCCOCCOCCOCC(=O)N[C@H](C(=O)N1C[C@H](O)C[C@H]1C(=O)NCc1ccc(-c2scnc2C)cc1)C(C)(C)C)[C@@H]1N=C(c2ccc(Cl)cc2)c2c(sc(C)c2C)-n2c(C)nnc21 (relative stereo) [ET-MZ1 (19), (2S,4R)-1-((2S,17R*)-(tert-butyl)-17-((S*)-4-(4-chlorophenyl)-2,3,9-trimethyl-6H-thieno[3,2-f][1,2,4]triazolo[4,3-a][1,4]diazepin-6-yl)-4,16-dioxo-6,9,12-trioxa-3,15-diazanonadecanoyl)-4-hydroxy-N-(4-(4-methylthiazol-5-yl)benzyl)pyrrolidine-2-carboxamide] | – | – | – | – | – | – | – | – | – | – | no observable off-target degradation |

From patent US20250130239A1, “PROTEIN DEGRADER” (University of Dundee, priority 2021, published 2025)
